From ChEMBL document CHEMBL1681651, “A broad spectrum anticancer nucleoside with selective toxicity against human colon cells in vitro” (2011)
“And” between values parts separate entries of the source, which are not always exact repeats. Equal values may be shown once.

What was measured:
Type in all cases: functional
PC-3 [1] = assay: Growth inhibition of human PC3 cells assessed as cell growth at 1 uM after 48 hrs by SRB assay; conditions: PC-3, 48 h, read-out: Activity
NCI/ADR-RES [2] = assay: Growth inhibition of human NCI/ADR-RES cells assessed as cell growth at 1 uM after 48 hrs by SRB assay; conditions: read-out: Activity
HOP-62 [3] = assay: Growth inhibition of human HOP62 cells after 48 hrs by […] growth inhibition assay; conditions: HOP-62, 48 h
KM12 [4] = assay: Growth inhibition of human KM12 cells after 48 hrs by […] growth inhibition assay; conditions: KM12, 48 h
HOP-62 [5] = assay: Growth inhibition of human HOP62 cells assessed as cell growth at 0.1 uM after 48 hrs by SRB assay; conditions: HOP-62, 48 h, read-out: Activity
HCC 2998 = assay: Growth inhibition of human HCC2998 cells assessed as cell growth at 0.1 uM after 48 hrs by SRB assay; conditions: HCC 2998, 48 h, read-out: Activity
KM12 [6] = assay: Growth inhibition of human KM12 cells assessed as cell growth at 0.1 uM after 48 hrs by SRB assay; conditions: KM12, 48 h, read-out: Activity
PC-3 [7] = assay: Growth inhibition of human PC3 cells assessed as cell growth at 0.1 uM after 48 hrs by SRB assay; conditions: PC-3, 48 h, read-out: Activity
PC-3 [8] = assay: Growth inhibition of human PC3 cells assessed as cell growth at 100 uM after 48 hrs by SRB assay; conditions: PC-3, 48 h, read-out: Activity
MCF7 [9] = assay: Growth inhibition of human MCF7 cells assessed as cell growth at 100 uM after 48 hrs by SRB assay; conditions: MCF7, 48 h, read-out: Activity
PC-3 [10] = assay: Growth inhibition of human PC3 cells assessed as cell growth at 1 mM after 48 hrs by SRB assay; conditions: PC-3, 48 h, read-out: Activity
MCF7 [11] = assay: Growth inhibition of human MCF7 cells assessed as cell growth at 1 mM after 48 hrs by SRB assay; design: Activity: scale not given: the % may be the effect or the level left
MDA-MB-468 = assay: Growth inhibition of human MDA-MB-468 cells assessed as cell growth at 10 uM after 48 hrs by SRB assay; conditions: MDA-MB-468, 48 h, read-out: Activity
[12] = Growth inhibition of human Hs 578T cells assessed as cell growth at 1 uM after 48 hrs by SRB assay; conditions: read-out: Activity
HL-60(TB) [13] = assay: Growth inhibition of human HL-60(TB) cells after 48 hrs by […] growth inhibition assay; conditions: HL-60, 48 h
K562 [14] = assay: Growth inhibition of human K562 cells after 48 hrs by […] growth inhibition assay; conditions: K562, 48 h
MOLT-4 [15] = assay: Growth inhibition of human MOLT4 cells after 48 hrs by […] growth inhibition assay; conditions: MOLT-4, 48 h
SW-620 [16] = assay: Growth inhibition of human SW620 cells after 48 hrs by […] growth inhibition assay; conditions: SW-620, 48 h
[17] = Growth inhibition of human Hs 578T cells after 48 hrs by […] growth inhibition assay
K562 [18] = assay: Growth inhibition of human K562 cells assessed as cell growth at 0.1 uM after 48 hrs by SRB assay; conditions: K562, 48 h, read-out: Activity
MOLT-4 [19] = assay: Growth inhibition of human MOLT4 cells assessed as cell growth at 0.1 uM after 48 hrs by SRB assay; conditions: MOLT-4, 48 h, read-out: Activity
SK-MEL-28 [20] = assay: Growth inhibition of human SK-MEL-28 cells assessed as cell growth at 0.1 uM after 48 hrs by SRB assay; conditions: SK-MEL-28, 48 h, read-out: Activity
[21] = Growth inhibition of human Hs 578T cells assessed as cell growth at 0.1 uM after 48 hrs by SRB assay; conditions: read-out: Activity
HL-60(TB) [22] = assay: Growth inhibition of human HL-60(TB) cells assessed as cell growth at 100 uM after 48 hrs by SRB assay; conditions: HL-60, 48 h, read-out: Activity
K562 [23] = assay: Growth inhibition of human K562 cells assessed as cell growth at 100 uM after 48 hrs by SRB assay; conditions: K562, 48 h, read-out: Activity
MOLT-4 [24] = assay: Growth inhibition of human MOLT4 cells assessed as cell growth at 100 uM after 48 hrs by SRB assay; conditions: MOLT-4, 48 h, read-out: Activity
SW-620 [25] = assay: Growth inhibition of human SW620 cells assessed as cell growth at 100 uM after 48 hrs by SRB assay; conditions: SW-620, 48 h, read-out: Activity
SK-MEL-28 [26] = assay: Growth inhibition of human SK-MEL-28 cells assessed as cell growth at 100 uM after 48 hrs by SRB assay; conditions: SK-MEL-28, 48 h, read-out: Activity
[27] = Growth inhibition of human Hs 578T cells assessed as cell growth at 100 uM after 48 hrs by SRB assay; conditions: read-out: Activity
HL-60(TB) [28] = assay: Growth inhibition of human HL-60(TB) cells assessed as cell growth at 1 mM after 48 hrs by SRB assay; conditions: HL-60, 48 h, read-out: Activity
SR [29] = assay: Growth inhibition of human SR cells assessed as cell growth at 1 mM after 48 hrs by SRB assay; conditions: read-out: Activity
NCI/ADR-RES [30] = assay: Growth inhibition of human NCI/ADR-RES cells assessed as cell growth at 1 mM after 48 hrs by SRB assay; conditions: read-out: Activity
HL-60(TB) [31] = assay: Growth inhibition of human HL-60(TB) cells assessed as cell growth at 1 uM after 48 hrs by SRB assay; conditions: HL-60, 48 h, read-out: Activity
MOLT-4 [32] = assay: Growth inhibition of human MOLT4 cells assessed as cell growth at 1 uM after 48 hrs by SRB assay; conditions: MOLT-4, 48 h, read-out: Activity
SR [33] = assay: Growth inhibition of human SR cells assessed as cell growth at 1 uM after 48 hrs by SRB assay; conditions: read-out: Activity
SK-MEL-28 [34] = assay: Growth inhibition of human SK-MEL-28 cells assessed as cell growth at 1 uM after 48 hrs by SRB assay; conditions: SK-MEL-28, 48 h, read-out: Activity
[35] = read-out: LC50 (the source's name)
[36] = read-out: pLC50 (the source's name) (converted)

CNC(=O)NC[C@H]1O[C@@H](n2cnc3c(NC(=O)Nc4ccccc4)ncnc32)[C@H](O[Si](C)(C)C(C)(C)C)[C@@H]1O[Si](C)(C)C(C)(C)C
growth at 1 µM (PC-3 [1]): 91% | growth at 1 µM (NCI/ADR-RES [2]): 109% | GI50 (HOP-62 [3]; read-out: GI50): 4.98 µM | CC50 (HOP-62 [3]; [35]): 48 µM | TGI (HOP-62 [3]; read-out: TGI): 17.1 µM | GI50 (HOP-62 [3]; read-out: pGI50 (converted)): 5.01 µM | CC50 (HOP-62 [3]; [36]): 47.9 µM | TGI (HOP-62 [3]; read-out: pTGI (converted)): 17 µM | GI50 (KM12 [4]; read-out: GI50): 2.13 µM | CC50 (KM12 [4]; [35]): 8.05 µM | TGI (KM12 [4]; read-out: TGI): 4.14 µM | GI50 (KM12 [4]; read-out: pGI50 (converted)): 2.14 µM | CC50 (KM12 [4]; [36]): 8.13 µM | TGI (KM12 [4]; read-out: pTGI (converted)): 4.17 µM | growth at 0.1 µM (HOP-62 [5]): 102% | growth at 0.1 µM (HCC 2998): 100% | growth at 0.1 µM (KM12 [6]): 104% | growth at 0.1 µM (PC-3 [7]): 93% | growth at 100 µM (PC-3 [8]): 6% | growth at 100 µM (MCF7 [9]): 6% | growth at 1000 µM (PC-3 [10]): 4% | Activity (MCF7 [11]): -21% and -16% | growth at 10 µM (MDA-MB-468): 99%

CCOC(=O)C[C@H]1[C@@H](O[Si](C)(C)C(C)(C)C)[C@H](n2cnc3c(NC(=O)Nc4ccccc4)ncnc32)O[C@@H]1CNC(=O)NC
growth at 1 µM (PC-3 [1]): 126% | growth at 1 µM (NCI/ADR-RES [2]): 107% | growth at 1 µM [12]: 95% | GI50 (HL-60(TB) [13]; read-out: GI50): 3.01 µM | CC50 (HL-60(TB) [13]; [35]): > 100 µM | GI50 (HL-60(TB) [13]; read-out: pGI50 (converted)): 3.02 µM | CC50 (HL-60(TB) [13]; [36]): > 100 µM | GI50 (K562 [14]; read-out: GI50): 3.59 µM | LC50 (concentration killing 50% of cells) (K562 [14]; read-out: LC50): > 100 µM | TGI (K562 [14]; read-out: TGI): 32.9 µM | GI50 (K562 [14]; read-out: pGI50 (converted)): 3.63 µM | LC50 (concentration killing 50% of cells) (K562 [14]; read-out: pLC50 (converted)): > 100 µM | TGI (K562 [14]; read-out: pTGI (converted)): 33.1 µM | GI50 (MOLT-4 [15]; read-out: GI50): 2.39 µM | LC50 (MOLT-4 [15]; read-out: LC50): > 100 µM | TGI (MOLT-4 [15]; read-out: TGI): 23.3 µM | GI50 (MOLT-4 [15]; read-out: pGI50 (converted)): 2.4 µM | LC50 (MOLT-4 [15]; read-out: pLC50 (converted)): > 100 µM | TGI (MOLT-4 [15]; read-out: pTGI (converted)): 23.4 µM | GI50 (HOP-62 [3]; read-out: GI50): 8.96 µM | CC50 (HOP-62 [3]; [35]): 73.1 µM | TGI (HOP-62 [3]; read-out: TGI): 26.4 µM | GI50 (HOP-62 [3]; read-out: pGI50 (converted)): 8.91 µM | CC50 (HOP-62 [3]; [36]): 72.4 µM | TGI (HOP-62 [3]; read-out: pTGI (converted)): 26.3 µM | GI50 (KM12 [4]; read-out: GI50): 3.95 µM | CC50 (KM12 [4]; [35]): > 100 µM | TGI (KM12 [4]; read-out: TGI): 20.9 µM | GI50 (KM12 [4]; read-out: pGI50 (converted)): 3.98 µM | CC50 (KM12 [4]; [36]): > 100 µM | TGI (KM12 [4]; read-out: pTGI (converted)): 20.9 µM | GI50 (SW-620 [16]; read-out: GI50): 4.8 µM | CC50 (SW-620 [16]; [35]): > 100 µM | TGI (SW-620 [16]; read-out: TGI): 28.4 µM | GI50 (SW-620 [16]; read-out: pGI50 (converted)): 4.79 µM | CC50 (SW-620 [16]; [36]): > 100 µM | TGI (SW-620 [16]; read-out: pTGI (converted)): 28.2 µM | GI50 ([17]; read-out: GI50): 3.6 µM | CC50 [17, 35]: > 100 µM | TGI ([17]; read-out: TGI): 53.6 µM | GI50 ([17]; read-out: pGI50 (converted)): 3.63 µM | CC50 [17, 36]: > 100 µM | TGI ([17]; read-out: pTGI (converted)): 53.7 µM | growth at 0.1 µM (K562 [18]): 96% | growth at 0.1 µM (MOLT-4 [19]): 93% | growth at 0.1 µM (HOP-62 [5]): 99% | growth at 0.1 µM (HCC 2998): 101% | growth at 0.1 µM (KM12 [6]): 107% | growth at 0.1 µM (SK-MEL-28 [20]): 104% | growth at 0.1 µM (PC-3 [7]): 121% | growth at 0.1 µM [21]: 94% | growth at 100 µM (HL-60(TB) [22]): -5% | growth at 100 µM (K562 [23]): 19% | growth at 100 µM (MOLT-4 [24]): 8% | growth at 100 µM (SW-620 [25]): 28% | growth at 100 µM (SK-MEL-28 [26]): 40% | growth at 100 µM (PC-3 [8]): -47% | growth at 100 µM (MCF7 [9]): 16% | growth at 100 µM [27]: 18% | growth at 1000 µM (HL-60(TB) [28]): 22% | growth at 1000 µM (SR [29]): -34% | growth at 1000 µM (PC-3 [10]): -77% | growth at 1000 µM (MCF7 [11]; Homo sapiens, MCF7, 48 h, read-out: Activity): -8% | growth at 1000 µM (NCI/ADR-RES [30]): 59% | growth at 1 µM (HL-60(TB) [31]): 110% | growth at 1 µM (MOLT-4 [32]): 84% | growth at 1 µM (SR [33]): 70% | growth at 1 µM (SK-MEL-28 [34]): 106%
